Structures are written as SMILES.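 1) Cells in 96-well plates. 2) Compound, 48 h, 5 concentrations. 3) Linear interpolation between surrounding doses. 4) Unreached endpoint = highest concentration. GI50 marks 50% less growth.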 Activity calls are given as the source filed them. Cut-off read from the data, not from the text of the source: active = GI50 up to about 1.1 µM and inactive = higher.

This note sets out measurements from ChEMBL document CHEMBL1201862, “PubChem BioAssay data set” (2004).

Test systems include HCC 2998; Malme-3M; RXF 393; HL-60; SNB-19; SK-MEL-5; OVCAR-4; IGROV-1; NCI-H226; SW-620; NCI-H460; OVCAR-8; SF-268; A498; SK-MEL-2.
Assay in all cases: inhibition of tumour cell growth, NCI panel, 48 h

Take `CC(=O)N1[C@H](C(=O)O)CS[C@H]1c1ccncc1`: the GI50 with HCC 2998, with Malme-3M, in the assay on RXF 393, with HL-60, in the assay with SNB-19 and with SK-MEL-5 was > 100 µM (inactive) each time. For the same compound, the GI50 is > 100 µM (inactive) in the assay with OVCAR-4; > 100 µM (inactive) in the assay with IGROV-1; > 100 µM (inactive) in the assay with NCI-H226; > 100 µM (inactive) with SW-620; > 100 µM (inactive) in the assay on NCI-H460; 32.7 µM (inactive) in the assay on OVCAR-8. The GI50 in the assay with SF-268 and with A498 was > 100 µM (inactive) in each case.
With `COc1cc(/C=C/C(=O)Oc2ccc(NC(C)=O)cc2)ccc1C(=O)O/C=C/c1ccccc1`, the GI50 in the assay with HCC 2998, in the assay with Malme-3M, in the assay on RXF 393, with HL-60, with SNB-19 and in the assay on SK-MEL-5 was > 100 µM (inactive) in each case. Moreover, the GI50 with OVCAR-4, in the assay on IGROV-1, in the assay on NCI-H226, in the assay on SW-620, with SK-MEL-2 and in the assay on NCI-H460 was > 100 µM (inactive) in each case. In addition, the GI50 with OVCAR-8, in the assay on SF-268 and with A498 was > 100 µM (inactive) throughout.
In the case of `NC(=O)/C(=N\NC(=O)c1cc2ccccc2cc1O)C1C(=O)N(c2ccccc2)N=C1N` (configuration not stated), the GI50 with HCC 2998 is 37.9 µM (inactive); with Malme-3M, 58.7 µM (inactive); with RXF 393, 29.3 µM (inactive); in the assay on HL-60, 6 µM (inactive); with SNB-19 it was 65.3 µM (inactive); in the assay with SK-MEL-5 it was 18.4 µM (inactive). Also, the GI50 was 22.6 µM (inactive) with OVCAR-4; 21.1 µM (inactive) with IGROV-1; 24.2 µM (inactive) in the assay with NCI-H226; 37.2 µM (inactive) in the assay on SW-620; 21.7 µM (inactive) in the assay with SK-MEL-2; > 100 µM (inactive) in the assay on NCI-H460. Further, the figures for the GI50 in the assay with OVCAR-8, in the assay on SF-268 and in the assay with A498 were 26.3 µM (inactive), 17.2 µM (inactive) and 1.23 µM (inactive), respectively.
With `CCOC(=O)Cc1ccc2c(c1O)C(=O)c1c(ccc(CC(=O)OCC)c1O)C2=O`, the GI50 with HCC 2998 was > 100 µM (inactive); in the assay with Malme-3M it was 30.1 µM (inactive); in the assay on RXF 393, 33 µM (inactive); with HL-60, > 100 µM (inactive); in the assay on SNB-19, > 100 µM (inactive); in the assay on SK-MEL-5, 20.4 µM (inactive). In addition, the GI50 is 43.5 µM (inactive) with NCI-H226; > 100 µM (inactive) in the assay with SW-620; > 100 µM (inactive) in the assay on SK-MEL-2; > 100 µM (inactive) in the assay with OVCAR-8; > 100 µM (inactive) in the assay on SF-268; > 100 µM (inactive) with A498.
In the case of `CCCCCC(C[N+]1(C)CCOCC1)C(=O)/C=C/c1ccccc1` (configuration not stated), the GI50 in the assay on HCC 2998 is 18.2 µM (inactive); with Malme-3M, 16.9 µM (inactive); in the assay on RXF 393, 14.4 µM (inactive); in the assay with HL-60, 6.89 µM (inactive); in the assay with SNB-19, 12 µM (inactive); in the assay with SK-MEL-5, 13.4 µM (inactive). In addition, the GI50 in the assay with OVCAR-4 was 11.2 µM (inactive); in the assay with IGROV-1, 19.4 µM (inactive); in the assay with NCI-H226, 10.8 µM (inactive); with SW-620, 2.62 µM (inactive); in the assay on SK-MEL-2 it was 15.2 µM (inactive); in the assay on NCI-H460 it was 16.4 µM (inactive). For the same compound, the values for the GI50 in the assay with OVCAR-8, with SF-268 and with A498 were 12.7 µM (inactive), 9.64 µM (inactive) and 15.1 µM (inactive), respectively.
As to `O=C1Sc2sc(=S)sc2SC1c1ccccc1` (configuration not stated), the GI50 in the assay with HCC 2998 is > 89.7 µM (inactive); in the assay with Malme-3M, > 49.3 µM (inactive); in the assay on RXF 393, 28.4 µM (inactive); in the assay on HL-60, 20 µM (inactive); in the assay with SNB-19, > 73.1 µM (inactive); in the assay on SK-MEL-5, > 100 µM (inactive). Also, the GI50 in the assay with OVCAR-4 is 18.3 µM (inactive); with IGROV-1 it was > 100 µM (inactive); in the assay with NCI-H226, > 81.8 µM (inactive); in the assay on SW-620 it was 21.1 µM (inactive); with SK-MEL-2, > 65 µM (inactive); with NCI-H460 it was 80.7 µM (inactive). In addition, the GI50 with OVCAR-8 is 59 µM (inactive); in the assay with SF-268 it was 46.6 µM (inactive); with A498, > 100 µM (inactive).
Take `O=C1C=CC(=C(c2ccc(O)cc2)c2ccc(O)cc2)C=C1` [AURIN]: the GI50 is 14.4 µM (inactive) in the assay with HCC 2998; 12 µM (inactive) in the assay with Malme-3M; 5.07 µM (inactive) with RXF 393; 2.86 µM (inactive) with HL-60; 15.6 µM (inactive) in the assay with SNB-19; 7.06 µM (inactive) in the assay with SK-MEL-5. Further, the GI50 in the assay with OVCAR-4 was 14.4 µM (inactive); with IGROV-1, 13.6 µM (inactive); with NCI-H226 it was 17.4 µM (inactive); in the assay with SW-620, 12.5 µM (inactive); with SK-MEL-2, 3.88 µM (inactive); in the assay on NCI-H460, 15.8 µM (inactive). For the same compound, the GI50 is 12.7 µM (inactive) in the assay on OVCAR-8, 13.2 µM (inactive) with SF-268 and 17.7 µM (inactive) in the assay on A498.
For the compound `CN(C)C=[N+]=[N-]`, the GI50 with HCC 2998, in the assay on Malme-3M, in the assay on RXF 393, in the assay with HL-60, in the assay with SNB-19 and with SK-MEL-5 was > 100 µM (inactive) each time. Besides, the GI50 in the assay with OVCAR-4, with IGROV-1, with NCI-H226, in the assay on SW-620, in the assay on SK-MEL-2 and in the assay on NCI-H460 was > 100 µM (inactive) in each case. Moreover, the GI50 with OVCAR-8, with SF-268 and in the assay on A498 was > 100 µM (inactive) each time.
In the case of `CCOc1ccccc1C=C1c2ccccc2C(=O)c2ccccc21`, the GI50 is 3.63 µM (inactive) with HCC 2998; 8.15 µM (inactive) in the assay on Malme-3M; 2.04 µM (inactive) in the assay on RXF 393; 2.99 µM (inactive) in the assay with HL-60; 3.63 µM (inactive) with SNB-19; 2.75 µM (inactive) in the assay with SK-MEL-5. Moreover, the GI50 was 22.1 µM (inactive) in the assay on OVCAR-4; 3.58 µM (inactive) in the assay with IGROV-1; 3.72 µM (inactive) with SW-620; 2.94 µM (inactive) with SK-MEL-2; 4.15 µM (inactive) with NCI-H460; 5.27 µM (inactive) with OVCAR-8. Also, the GI50 is 5.07 µM (inactive) with SF-268 and 6.75 µM (inactive) with A498.
As to `Cc1nc([N+](=O)[O-])cn1CC(=N)N`, the GI50 in the assay on HCC 2998, with Malme-3M, in the assay on RXF 393, with HL-60, in the assay on SNB-19 and in the assay with SK-MEL-5 was > 100 µM (inactive) in each case. The GI50 with OVCAR-4, in the assay with IGROV-1, in the assay on NCI-H226, with SW-620, in the assay on SK-MEL-2 and in the assay with NCI-H460 was > 100 µM (inactive) in each case. In addition, the GI50 in the assay with OVCAR-8, with SF-268 and in the assay on A498 was > 100 µM (inactive) throughout.
As for `CC(=O)OC1CCC2(C)C(CCC3C2CCC2(C)C(c4ccc(=O)oc4)C(OC(C)=O)CC32O)C1` (configuration not stated), the GI50 in the assay on HCC 2998 was 0.0269 µM (active); in the assay on Malme-3M, 0.0125 µM (active); in the assay with RXF 393 it was 0.0125 µM (active); in the assay with HL-60, 0.0154 µM (active); with SNB-19 it was 0.0293 µM (active); in the assay on SK-MEL-5, 0.0164 µM (active). Also, the GI50 with OVCAR-4 was 0.0125 µM (active); with IGROV-1, 0.0173 µM (active); in the assay on NCI-H226 it was 0.0356 µM (active); in the assay with SW-620, 0.0148 µM (active); in the assay with SK-MEL-2 it was 0.0258 µM (active); in the assay with NCI-H460 it was 0.0147 µM (active). Moreover, the GI50 in the assay on OVCAR-8 is 0.0171 µM (active); in the assay on SF-268, 0.0144 µM (active); in the assay on A498 it was 0.0156 µM (active).
As to `CCOC(=O)C1=C(NC)OC/C1=N\NC(=O)c1ccccc1O`, the GI50 in the assay on HCC 2998 is 25.1 µM (inactive); in the assay on Malme-3M, 26.9 µM (inactive); with RXF 393, 16.7 µM (inactive); in the assay with HL-60, 19.3 µM (inactive); in the assay on SNB-19, 12.7 µM (inactive); in the assay with SK-MEL-5 it was 35.8 µM (inactive). Moreover, the GI50 in the assay with OVCAR-4 was 16.3 µM (inactive); with IGROV-1, 7.21 µM (inactive); in the assay on NCI-H226 it was 13.3 µM (inactive); in the assay on SW-620, 31.8 µM (inactive); in the assay with SK-MEL-2 it was 12.8 µM (inactive); in the assay on NCI-H460 it was 28.2 µM (inactive). Besides, the results for the GI50 in the assay on OVCAR-8, with SF-268 and with A498 were 24.2 µM (inactive), 6.53 µM (inactive) and > 100 µM (inactive), respectively.
On to `COc1cc2c3c(c1OC)/C(=N/OS(=O)(=O)c1ccc(C)cc1)CC3N(S(=O)(=O)c1ccc(C)cc1)CC2` (configuration not stated), for which the GI50 in the assay with HCC 2998 was > 100 µM (inactive); in the assay with Malme-3M, > 100 µM (inactive); with RXF 393, 53.5 µM (inactive); with HL-60, > 100 µM (inactive); in the assay on SNB-19 it was > 100 µM (inactive); in the assay on SK-MEL-5, > 100 µM (inactive). Moreover, the GI50 is > 100 µM (inactive) in the assay with OVCAR-4; > 100 µM (inactive) with IGROV-1; > 100 µM (inactive) in the assay on NCI-H226; > 100 µM (inactive) in the assay on SW-620; > 100 µM (inactive) in the assay on NCI-H460; 93.3 µM (inactive) with OVCAR-8. In addition, the GI50 with SF-268 and in the assay with A498 was > 100 µM (inactive) in each case.
For the compound `CCOC(=O)N1CCc2cc(OC)c(OC)cc2/C1=C/c1ccc(OC)c(OC)c1`, the GI50 with HCC 2998 is 42.6 µM (inactive); in the assay on Malme-3M, 20 µM (inactive); in the assay with RXF 393, 37.9 µM (inactive); in the assay on HL-60 it was 23.6 µM (inactive); in the assay on SNB-19, 58.3 µM (inactive); in the assay on SK-MEL-5, 20.9 µM (inactive). Also, the GI50 is > 100 µM (inactive) in the assay with IGROV-1; 69.5 µM (inactive) in the assay with NCI-H226; 46.2 µM (inactive) in the assay on SW-620; 51.6 µM (inactive) in the assay on SK-MEL-2; > 10 µM (inactive) in the assay on OVCAR-8; 79.6 µM (inactive) in the assay with SF-268. Besides, the GI50 in the assay on A498 was 56.4 µM (inactive).
